Measured values taken from ChEMBL document CHEMBL1133858, “BMS-196085: a potent and selective full agonist of the human beta(3) adrenergic receptor” (Bioorg Med Chem Lett, 2001).

Columns and labels:
[1] = biological target: T1, Beta-3 adrenergic receptor (Homo sapiens, UniProt P13945); test: Agonist activity was assessed by measurement of cAMP accumulation levels in CHO membranes expressing human beta-3 receptor; type: functional, cell membranes
Target sequence in this assay (P13945 whole entry, looked up): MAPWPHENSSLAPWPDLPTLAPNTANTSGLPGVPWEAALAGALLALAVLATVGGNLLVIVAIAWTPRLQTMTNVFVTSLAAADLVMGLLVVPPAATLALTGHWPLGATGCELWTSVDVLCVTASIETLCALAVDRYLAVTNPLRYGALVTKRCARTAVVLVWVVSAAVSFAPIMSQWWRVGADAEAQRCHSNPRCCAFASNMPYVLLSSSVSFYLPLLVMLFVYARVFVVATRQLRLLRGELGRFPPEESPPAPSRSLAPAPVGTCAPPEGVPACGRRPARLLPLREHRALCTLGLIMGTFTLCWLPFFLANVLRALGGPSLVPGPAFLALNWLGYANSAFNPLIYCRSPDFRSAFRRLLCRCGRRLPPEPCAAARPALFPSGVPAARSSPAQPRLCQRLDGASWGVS

ADRB1+ADRB3 (+) = test: Tested for binding selectivity to beta3 adrenoceptor versus beta-1 adrenoceptor
ADRB2+ADRB3 (+) = test: Tested for binding selectivity to beta3 adrenoceptor versus beta2 adrenoceptor
[2] = biological target: T1, Beta-3 adrenergic receptor; test: Binding affinity to CHO cells expressing the cloned human beta-3 adrenergic receptor in the presence of [125I]iodocyanopindolol; type: cell-based
Target sequence in this assay (P13945 whole entry): as the sequence (P13945 whole entry, looked up) above

[3] = biological target: T1, Beta-3 adrenergic receptor; test: Human beta-3 receptor agonist activity was assessed by measurement of cAMP accumulation levels in CHO cells expressing human beta-3 receptor; type: functional, cell-based
Target sequence in this assay (P13945 whole entry, looked up): as above

[4] = biological target: Beta-1 adrenergic receptor (Cavia porcellus) (UniProt B0FL73); test: Beta1 receptor intrinsic activity is given as a percent of the maximal increase in the beating rate of an isolated spontaneously beating guinea pig atrium induced by isoproterenol; type: functional, tissue-based; conditions: Cardiac atrium
[5] = Tested for Lowest dose required to produce tachycardia divided by effective dose for lipolysis african green monkey 30 min after iv administration; type: functional, Cercopithecidae
[6] = In vivo effective dose for lipolysis in african monkeys after iv administration; type: functional; conditions: Cercopithecidae
[7] = Tested for lowest dose required to produce change in plasma potassium level divided by effective dose for lipolysis african green monkey 30 min after iv administration; type: functional, Cercopithecidae
[8] = Dose that produced tachycardia in african green monkeys after iv administration; type: functional, Cercopithecidae
[9] = Tested for Lowest dose required to produce change in plasma potassium level divided by effective dose for lipolysis african green monkey 30 min after iv administration; type: functional, Cercopithecidae
[10] = Lowest dose required to produce statistically significant hypokalemia divided by ED50 for lipolysis in african green monkeys after 30 min (iv); type: functional, Cercopithecidae
[11] = Tested for half life upon iv administration to african green monkey; type: ADME, organism-based; conditions: cercopithecidae, in vivo
[12] = Lowest dose required to produce statistically significant tachycardia divided by ED50 for lipolysis in african green monkeys after 30 min (iv); type: functional, Cercopithecidae
Homo sapiens = species on record: Homo sapiens; test: Transdermal flux across human cadaver skin; type: functional
[13] = biological target: Beta-3 adrenergic receptor (Mus musculus, UniProt P25962); test: Tested for binding affinity to murine Beta-3 adrenergic receptor
[14] = Tested for volume of distribution upon iv administration to african green monkey; type: ADME, organism-based; conditions: cercopithecidae, in vivo
[15] = biological target: Beta-2 adrenergic receptor (Homo sapiens) (UniProt P07550); test: Tested for Intrinsic activity (IA) against adenylate cyclase in CHO cells transfected with human beta-2 adrenoceptor; type: functional, cell-based
[16] = Oral systemic bioavailability […] to african green monkey; type: ADME, organism-based; conditions: cercopithecidae, in vivo, read-out: Bioavailabiility
[17] = Tested for Clearance upon iv administration to african green monkey; type: ADME, organism-based; conditions: cercopithecidae, in vivo
[18] = biological target: Beta-1 adrenergic receptor (Homo sapiens) (UniProt P08588); test: Tested for Intrinsic activity (IA) against adenylate cyclase in CHO cells transfected with human beta-1 adrenoceptor; type: functional, cell-based
Sequence of Beta-1 adrenergic receptor (Homo sapiens) (P08588 whole entry, looked up): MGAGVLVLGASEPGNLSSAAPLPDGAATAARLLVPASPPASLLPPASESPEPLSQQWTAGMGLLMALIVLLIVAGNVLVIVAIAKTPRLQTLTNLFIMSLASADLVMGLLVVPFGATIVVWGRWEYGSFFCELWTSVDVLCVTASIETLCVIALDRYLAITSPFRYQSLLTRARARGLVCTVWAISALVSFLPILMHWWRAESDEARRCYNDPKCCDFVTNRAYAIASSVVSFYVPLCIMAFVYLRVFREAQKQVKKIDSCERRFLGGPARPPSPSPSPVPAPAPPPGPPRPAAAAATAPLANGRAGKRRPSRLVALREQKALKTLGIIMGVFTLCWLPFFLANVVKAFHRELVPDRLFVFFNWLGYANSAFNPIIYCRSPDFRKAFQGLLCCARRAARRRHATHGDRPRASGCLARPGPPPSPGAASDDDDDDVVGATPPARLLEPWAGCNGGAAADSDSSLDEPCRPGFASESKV

Sequence of Beta-1 adrenergic receptor (Cavia porcellus) (B0FL73 1-467): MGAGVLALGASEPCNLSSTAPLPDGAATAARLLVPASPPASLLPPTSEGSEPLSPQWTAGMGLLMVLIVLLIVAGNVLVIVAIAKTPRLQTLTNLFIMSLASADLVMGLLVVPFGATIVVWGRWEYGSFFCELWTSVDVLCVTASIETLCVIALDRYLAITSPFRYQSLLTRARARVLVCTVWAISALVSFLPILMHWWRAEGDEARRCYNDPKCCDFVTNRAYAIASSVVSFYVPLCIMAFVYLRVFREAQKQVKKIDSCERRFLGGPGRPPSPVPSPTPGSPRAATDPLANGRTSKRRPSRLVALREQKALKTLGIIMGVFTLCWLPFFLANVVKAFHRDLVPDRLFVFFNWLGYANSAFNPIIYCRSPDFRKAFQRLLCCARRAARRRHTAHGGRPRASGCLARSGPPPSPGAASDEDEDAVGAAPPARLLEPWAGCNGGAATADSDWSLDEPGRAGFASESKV
Sequence of Beta-2 adrenergic receptor (Homo sapiens) (P07550 whole entry, looked up): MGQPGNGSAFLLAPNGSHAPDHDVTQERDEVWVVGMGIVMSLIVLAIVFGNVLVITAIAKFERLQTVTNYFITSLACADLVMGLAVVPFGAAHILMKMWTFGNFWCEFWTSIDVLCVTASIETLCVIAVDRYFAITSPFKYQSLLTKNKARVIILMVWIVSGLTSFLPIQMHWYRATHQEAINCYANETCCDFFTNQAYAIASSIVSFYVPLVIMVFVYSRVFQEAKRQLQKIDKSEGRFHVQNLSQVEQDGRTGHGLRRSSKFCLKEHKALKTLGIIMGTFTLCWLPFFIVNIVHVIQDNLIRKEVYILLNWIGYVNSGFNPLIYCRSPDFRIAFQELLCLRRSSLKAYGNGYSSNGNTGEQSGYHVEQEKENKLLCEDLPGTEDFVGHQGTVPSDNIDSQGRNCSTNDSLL
Sequence of Beta-3 adrenergic receptor (Mus musculus, UniProt P25962) (P25962 whole entry): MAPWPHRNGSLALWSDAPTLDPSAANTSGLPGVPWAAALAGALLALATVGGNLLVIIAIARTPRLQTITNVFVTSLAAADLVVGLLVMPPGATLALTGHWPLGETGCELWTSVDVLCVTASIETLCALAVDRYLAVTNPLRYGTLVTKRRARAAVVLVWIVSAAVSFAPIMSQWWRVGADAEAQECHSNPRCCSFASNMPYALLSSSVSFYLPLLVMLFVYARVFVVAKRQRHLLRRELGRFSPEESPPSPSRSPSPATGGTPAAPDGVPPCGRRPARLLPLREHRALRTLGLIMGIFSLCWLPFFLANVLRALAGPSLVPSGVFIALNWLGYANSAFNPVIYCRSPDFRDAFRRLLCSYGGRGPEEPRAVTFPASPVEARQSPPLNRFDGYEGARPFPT

Row | Compound | Intrinsic activity [1] | Selectivity ratio (ADRB1+ADRB3 (+)) | Selectivity ratio (ADRB2+ADRB3 (+)) | Ki [2] | also measured
1 | CNC(=O)c1ccc([C@@H](Cc2ccccc2)NC[C@H](O)c2ccc(O)c(NS(C)(=O)=O)c2)cc1 | 102% | 79 | 3 | 120 nM | 
2 | CS(=O)(=O)Nc1cc(C(O)CNC(Cc2ccccc2)c2ccc(S(C)(=O)=O)cc2)ccc1O (stereo unspecified) | 129% | 53 | 3 | 440 nM | 
3 | CS(=O)(=O)Nc1cc(C(O)CNC(Cc2ccccc2)c2ccsc2)ccc1O (stereo unspecified) | 110% | 1 | 0.3 | 129 nM | 
4 | CS(=O)(=O)Nc1cc([C@@H](O)CNC(Cc2ccccc2)c2ccc(Oc3ccccc3)cc2)ccc1O (stereo partly specified) |  | 4 | 0.5 | 990 nM | 
5 | C[C@](Cc1ccccc1)(NC[C@H](O)c1ccc(O)c(NS(C)(=O)=O)c1)c1ccc(OC(F)F)cc1 |  | 12 | 14 | 9 nM | 
6 | CS(=O)(=O)Nc1cc(C(O)CNC(Cc2ccccc2)c2nccs2)ccc1O (stereo unspecified) | 45% | 4 | 0.6 | 2400 nM | 
7 | Cc1cc([C@@H](Cc2ccccc2)NC[C@H](O)c2ccc(O)c(NS(C)(=O)=O)c2)ccc1OC(F)F |  |  |  | 69 nM | 
8 | CN(C)C(=O)c1ccc([C@@H](Cc2ccccc2)NC[C@H](O)c2ccc(O)c(NS(C)(=O)=O)c2)cc1 | 98% | 25 | 0.4 | 800 nM | 
9 | CS(=O)(=O)Nc1cc(C(O)CNC(Cc2ccccc2)c2ccccc2)ccc1O (stereo unspecified) |  | 15 | 3 | 360 nM | Intrinsic activity [3]: 133%
10 | COc1ccc([C@@H](Cc2ccccc2)NC[C@H](O)c2ccc(O)c(NS(C)(=O)=O)c2)cn1 | 101% | 180 | 30 | 25 nM | Activity [4]: 70%
11 | CS(=O)(=O)Nc1cc(C(O)CNC(Cc2ccccc2)c2ccncc2)ccc1O (stereo unspecified) | 129% | 30 | 8 | 700 nM | 
12 | CS(=O)(=O)Nc1cc([C@@H](O)CNC(Cc2ccccc2)c2ccc(OCc3ccccc3)cc2)ccc1O (stereo partly specified) |  |  |  | 70 nM | 
13 | CS(=O)(=O)Nc1cc([C@@H](O)CN[C@H](Cc2ccccc2)c2cccc3ccccc23)ccc1O | 105% | 33 | 6 | 43 nM | Margin before onset of tachycardia [5]: 2; ED50 [6]: 0.25 mg/kg; Margin before onset of hypokalemia [7]: 2; Activity [4]: 40%
14 | CS(=O)(=O)Nc1cc([C@@H](O)CN[C@H](Cc2ccccc2)c2ccc(C(=O)NO)cc2)ccc1O | 106% | 537 | 4 | 147 nM | 
15 | CS(=O)(=O)Nc1cc([C@@H](O)CN[C@H](Cc2ccccc2)c2ccc(C(=O)O)cc2)ccc1O | 123% | 17 | 6 | 8600 nM | 
16 | CS(=O)(=O)Nc1cc(C(O)CNC(Cc2ccccc2)c2ccc(F)cc2)ccc1O (stereo unspecified) | 100% |  |  | 836 nM | 
17 | CS(=O)(=O)Nc1cc([C@@H](O)CN[C@H](Cc2ccccc2)c2ccc(CC(N)=O)cc2)ccc1O | 106% | 17 | 2 | 74 nM | 
18 | CS(=O)(=O)Nc1cc([C@@H](O)CNC(Cc2ccccc2)c2ccc(OC(F)(F)F)cc2)ccc1O (stereo partly specified) |  | 25 | 2 | 210 nM | 
19 | CS(=O)(=O)Nc1cc(C(O)CNC(Cc2ccccc2)c2ccc3sccc3c2)ccc1O (stereo unspecified) | 90% | 19 | 2 | 230 nM | 
20 | COC(=O)c1ccc([C@@H](Cc2ccccc2)NC[C@H](O)c2ccc(O)c(NS(C)(=O)=O)c2)cc1 | 98% |  |  | 85 nM | 
21 | CS(=O)(=O)Nc1cc([C@@H](O)CN[C@H](Cc2ccccc2)c2ccc(OC(F)F)c(OC(F)F)c2)ccc1O |  | 37 | 0.4 | 38 nM | 
22 | COc1ccc([C@@H](Cc2ccccc2)NC[C@H](O)c2ccc(O)c(NS(C)(=O)=O)c2)c(OC)n1 | 94% |  |  | 15 nM | Activity [4]: 60%
23 | CS(=O)(=O)Nc1cc([C@@H](O)CN[C@H](Cc2ccccc2)c2ccc3c(c2)OCO3)ccc1O | 94% | 52 | 8 | 8 nM | Margin before onset of tachycardia [5]: 1; ED50 [6]: 0.02 mg/kg; Margin before onset of hypokalemia [7]: 2; Activity [4]: 80%; Dose [8]: 0.1 mg/kg
24 | CS(=O)(=O)Nc1cc([C@@H](O)CN[C@H](Cc2ccccc2)c2ccc(C#N)cc2)ccc1O | 107% | 30 | 4 | 210 nM | 
25 | CS(=O)(=O)Nc1cc([C@@H](O)CN[C@H](Cc2ccccc2)c2ccc(OC(F)F)c3ccccc23)ccc1O | 100% | 275 | 9 | 2 nM | Margin before onset of hypokalemia [9]: 2; Margin before onset of tachycardia [5]: 2; ED50 [6]: 0.25 mg/kg; Activity [4]: 23%
26 | CS(=O)(=O)Nc1cc([C@@H](O)CNC(Cc2ccccc2)c2ccc(OCC(F)(F)F)cc2)ccc1O (stereo partly specified) |  | 83 | 1 | 84 nM | 
27 | CS(=O)(=O)Nc1cc([C@@H](O)CN[C@H](Cc2ccccc2)c2ccc(C(N)=O)cc2)ccc1O | 108% |  |  | 70 nM | 
28 | COc1ccc([C@@H](Cc2ccccc2)NC[C@H](O)c2ccc(O)c(NS(C)(=O)=O)c2)c2ccccc12 | 85% | 46 | 9 | 26 nM | Activity [4]: 22%
29 | CS(=O)(=O)Nc1cc([C@@H](O)CN[C@H](Cc2ccccc2)c2ccc(OC(F)F)cc2)ccc1O | 95% | 36 | 5 | 21 nM | Margin before onset of hypokalemia [10]: 25; half-life [11]: 7.3 h; Margin before onset of tachycardia [12]: 5; Activity (Homo sapiens): 12 ug cm**-2 hr-1; Ki [13]: 4000 nM; Vd [14]: 10 L/kg; ED50 [6]: 0.02 mg/kg; Intrinsic activity [15]: 45%; bioavailability [16]: 5%; clearance [17]: 36 mL/min/kg; Intrinsic activity [18]: 63%; Activity [4]: 45%; Dose [8]: 0.1 mg/kg
